Measured values published in US9957264B2 (Merck Sharp & Dohme Corp., priority 2013, dated 2018).

Assays:
[1] = target: JAK1 (recombinant purified GST-tagged catalytic domain) (Homo sapiens (Human), UniProt P23458); assay: Jak Biochemical HTRF Assay (JAK1); conditions: [ATP] 31.8 μM
Procedure, shortened: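 HTRF kinase format: compounds pre-equilibrated with recombinant GST-tagged JAK1 or JAK2 catalytic domain, then ATP started a 120 min room-temperature reaction on a common peptide substrate. Phosphopeptide detected via Eu-pY20/streptavidin-Dylight 650 after EDTA quench; percent inhibition versus log concentration fitted (4-parameter) to give IC50.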

[2] = target: JAK2 (recombinant purified GST-tagged catalytic domain) (Homo sapiens (Human), UniProt O60674); assay: Jak Biochemical HTRF Assay (JAK2); conditions: [ATP] 8.5 μM
JAK2 (recombinant purified GST-tagged catalytic domain), sequence (O60674 849-1124): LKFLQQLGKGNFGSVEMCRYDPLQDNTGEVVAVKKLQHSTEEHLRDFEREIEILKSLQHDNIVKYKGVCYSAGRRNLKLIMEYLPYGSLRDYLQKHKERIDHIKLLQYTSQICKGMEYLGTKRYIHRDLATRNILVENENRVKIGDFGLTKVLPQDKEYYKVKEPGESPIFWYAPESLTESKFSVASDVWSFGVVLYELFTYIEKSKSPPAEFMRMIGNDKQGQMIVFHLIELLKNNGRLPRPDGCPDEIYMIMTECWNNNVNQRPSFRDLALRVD

JAK1 (recombinant purified GST-tagged catalytic domain), sequence (P23458 875-1153): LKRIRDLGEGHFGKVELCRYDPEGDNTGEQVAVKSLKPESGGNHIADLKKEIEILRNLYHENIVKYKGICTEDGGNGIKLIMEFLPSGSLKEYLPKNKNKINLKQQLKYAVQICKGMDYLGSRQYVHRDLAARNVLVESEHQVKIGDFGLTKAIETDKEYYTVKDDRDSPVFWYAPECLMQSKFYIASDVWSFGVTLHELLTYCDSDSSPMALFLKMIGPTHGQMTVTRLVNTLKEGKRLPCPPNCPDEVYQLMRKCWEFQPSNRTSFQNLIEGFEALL

## CCNC(c1ccc(Nc2nn([C@@]3(CC#N)CCCC[C@H]3F)c3cc[nH]c(=O)c23)cc1)C(F)(F)F (single isomer, unassigned) [Example 5-174, {(1R,2R)-1-[3-({4-[(1R or 1S)-1-(ethylamino)-2,2,2-trifluoroethyl]phenyl}amino)-4-oxo-4,5-dihydro-1H-pyrazolo [4,3-c]pyridin-1-yl]-2-fluorocyclohexyl} acetonitrile]
[1]
  IC50: 0.06 nM
[2]
  IC50: 0.06 nM

## N#CC[C@]1(n2nc(Nc3ccc(C(N)C(F)(F)F)cc3)c3c(=O)[nH]ccc32)CCCC[C@H]1F (single isomer, unassigned) [Example 5-176, {(1R,2R)-1-[3-({4-[(1R or 1S)-1-amino-2,2,2-trifluoroethyl]phenyl}amino)-4-oxo-4,5-dihydro-1H-pyrazolo [4,3-c]pyridin-1-yl]-2-fluorocyclohexyl} acetonitrile]
[1]
  IC50: 0.05 nM
[2]
  IC50: 0.09 nM

## N#CC[C@]1(n2nc(Nc3ccc(C(N)C(F)(F)F)cc3)c3c(=O)[nH]ccc32)CCCC[C@H]1F (single isomer, unassigned) [Example 5-177, {(1R,2R)-1-[3-({4-[(1S or 1R)-1-amino-2,2,2-trifluoroethyl]phenyl}amino)-4-oxo-4,5-dihydro-1H-pyrazolo[4,3-c]pyridin-1-yl]-2-fluorocyclohexyl} acetonitrile]
[1]
  IC50: 0.09 nM
[2]
  IC50: 0.16 nM

## CN(C)S(=O)(=O)c1ccc(Nc2nn([C@]3(CC#N)COCC[C@@H]3F)c3cc[nH]c(=O)c23)cc1 (single isomer, unassigned) [Example 5-180, 4-({1-[(3R,4S or 3S,4R)-3-(cyanomethyl)-4-fluorotetrahydro-2H-pyran-3-yl]-4-oxo-4,5-dihydro-1H-pyrazolo[4,3-c]pyridin-3-yl}amino)-N,N-dimethylbenzene-sulfonamide]
[1]
  IC50: 0.84 nM
[2]
  IC50: 1.84 nM

## CN(C)S(=O)(=O)c1ccc(Nc2nn([C@@]3(CC#N)COCC[C@H]3F)c3cc[nH]c(=O)c23)cc1 (single isomer, unassigned) [Example 5-181, 4-({1-[(3S,4R or 3S,4R)-3-(cyanomethyl)-4-fluorotetrahydro-2H-pyran-3-yl]-4-oxo-4,5-dihydro-1H-pyrazolo[4,3-c]pyridin-3-yl}amino)-N,N-dimethylbenzene-sulfonamide]
[1]
  IC50: 0.29 nM
[2]
  IC50: 0.95 nM

## N#CC[C@@]1(n2nc(Nc3ccc(C(N)C(F)(F)F)cc3)c3c(=O)[nH]ccc32)CCCOC1 (single isomer, unassigned) [Example 5-187, {(3S)-3-[3-({4-[(1R or 1S)-1-amino-2,2,2-trifluoroethyl]phenyl}amino)-4-oxo-4,5-dihydro-1H-pyrazolo[4,3-c]pyridin-1-yl]tetrahydro-2H-pyran-3-yl}acetonitrile]
[1]
  IC50: 0.19 nM
[2]
  IC50: 0.58 nM

## N#CC[C@@]1(n2nc(Nc3ccc(C(N)C(F)(F)F)cc3)c3c(=O)[nH]ccc32)CCCOC1 (single isomer, unassigned) [Example 5-188, {(3S)-3-[3-({4-[(1S or 1R)-1-amino-2,2,2-trifluoroethyl]phenyl}amino)-4-oxo-4,5-dihydro-1H-pyrazolo[4,3-c]pyridin-1-yl]tetrahydro-2H-pyran-3-yl}acetonitrile]
[1]
  IC50: 0.11 nM
[2]
  IC50: 0.34 nM

## CC(C)(C)NC(c1ccc(Nc2nn([C@]3(CC#N)CCCOC3)c3cc[nH]c(=O)c23)cc1)C(F)(F)F (single isomer, unassigned) [Example 5-189, {(3S)-3-[3-({4-[(1R or 1S)-1-(tert-butylamino)-2,2,2-trifluoroethyl]phenyl}amino)-4-oxo-4,5-dihydro-1H-pyrazolo [4,3-c]pyridin-1-yl]tetrahydro-2H-pyran-3-yl}acetonitrile]
[1]
  IC50: 0.14 nM
[2]
  IC50: 0.17 nM

## CC(C)(C)NC(c1ccc(Nc2nn([C@]3(CC#N)CCCOC3)c3cc[nH]c(=O)c23)cc1)C(F)(F)F (single isomer, unassigned) [Example 5-190, {(3S)-3-[3-({4-[(1S or 1R)-1-(tert-butylamino)-2,2,2-trifluoroethyl]phenyl}amino)-4-oxo-4,5-dihydro-1H-pyrazolo [4,3-c]pyridin-1-yl]tetrahydro-2H-pyran-3-yl}acetonitrile]
[1]
  IC50: 0.21 nM
[2]
  IC50: 0.38 nM

## CC(C)(C)NC(c1ccc(Nc2nn([C@]3(CC#N)CC[C@@H](C(=O)OC(C)(C)C)OC3)c3cc[nH]c(=O)c23)cc1)C(F)(F)F (single isomer, unassigned) [Example 5-194, (2S,5S)-tert-butyl 5-(3-((4-((R or S)-1-(tert-butylamino)-2,2,2-trifluoroethyl)phenyl)amino)-4-oxo-4,5-dihydro-1H-pyrazolo [4,3-c]pyridin-1-yl)-5-(cyanomethyl)tetrahydro-2H-pyran-2-carboxylate]
[1]
  IC50: 0.52 nM
[2]
  IC50: 0.82 nM

## CC(C)(C)NC(c1ccc(Nc2nn([C@]3(CC#N)CC[C@@H](C(=O)OC(C)(C)C)OC3)c3cc[nH]c(=O)c23)cc1)C(F)(F)F (single isomer, unassigned) [Example 5-195, (2S,5S)-tert-butyl 5-(3-((4-((R or S)-1-(tert-butylamino)-2,2,2-trifluoroethyl)phenyl)amino)-4-oxo-4,5-dihydro-1H-pyrazolo [4,3-c]pyridin-1-yl)-5-(cyanomethyl)tetrahydro-2H-pyran-2-carboxylate]
[1]
  IC50: 0.56 nM
[2]
  IC50: 0.68 nM

## N#CC[C@@]1(n2nc(Nc3ccc(C(N4CCCC4)C(F)(F)F)cc3)c3c(=O)[nH]ccc32)CCCOC1 (single isomer, unassigned) [Example 5-198, {(3S)-3-[4-oxo-3-({4-[(1R or 1S)-2,2,2-trifluoro-1-pyrrolidin-1-ylethyl]phenyl}amino)-4,5-dihydro-1H-pyrazolo [4,3-c]pyridin-1-yl]tetrahydro-2H-pyran-3-yl}acetonitrile]
[1]
  IC50: 0.16 nM
[2]
  IC50: 0.39 nM

## N#CC[C@@]1(n2nc(Nc3ccc(C(N4CCCC4)C(F)(F)F)cc3)c3c(=O)[nH]ccc32)CCCOC1 (single isomer, unassigned) [Example 5-199, {(3S)-3-[4-oxo-3-({4-[(1S or 1R)-2,2,2-trifluoro-1-pyrrolidin-1-ylethyl]phenyl}amino)-4,5-dihydro-1H-pyrazolo[4,3-c]pyridin-1-yl]tetrahydro-2H-pyran-3-yl}acetonitrile]
[1]
  IC50: 0.15 nM
[2]
  IC50: 0.33 nM

## CC(c1ccc(Nc2nn([C@]3(CC#N)CCCOC3)c3cc[nH]c(=O)c23)cc1)N1CCCC1 (single isomer, unassigned) [Example 5-200, {(3S)-3-[4-oxo-3-({4-[(1S or 1R)-1-pyrrolidin-1-ylethyl]phenyl}amino)-4,5-dihydro-1H-pyrazolo[4,3-c]pyridin-1-yl]tetrahydro-2H-pyran-3-yl}acetonitrile]
[1]
  IC50: 1.15 nM
[2]
  IC50: 0.53 nM

## CC(c1ccc(Nc2nn([C@]3(CC#N)CCCOC3)c3cc[nH]c(=O)c23)cc1)N1CCCC1 (single isomer, unassigned) [Example 5-201, {(3S)-3-[4-oxo-3-({4-[(1R or 1S)-1-pyrrolidin-1-ylethyl]phenyl}amino)-4,5-dihydro-1H-pyrazolo[4,3-c]pyridin-1-yl]tetrahydro-2H-pyran-3-yl}acetonitrile]
[1]
  IC50: 0.49 nM
[2]
  IC50: 0.27 nM

## CC(C)NC(c1ccc(Nc2nn([C@]3(CC#N)CCCOC3)c3cc[nH]c(=O)c23)cc1)C(F)(F)F (single isomer, unassigned) [Example 5-205, [(3S)-3-{4-oxo-3-[(4-{(1R or 1S)-2,2,2-trifluoro-1-[(1-methylethyl)amino]ethyl}phenyl)amino]-4,5-dihydro-1H-pyrazolo[4,3-c]pyridin-1-yl}tetrahydro-2H-pyran-3-yl]acetonitrile]
[1]
  IC50: 0.17 nM
[2]
  IC50: 0.2 nM

## CC(C)NC(c1ccc(Nc2nn([C@]3(CC#N)CCCOC3)c3cc[nH]c(=O)c23)cc1)C(F)(F)F (single isomer, unassigned) [Example 5-206, [(3S)-3-{4-oxo-3-[(4-{(1S or 1R)-2,2,2-trifluoro-1-[(1-methylethyl)amino]ethyl}phenyl)amino]-4,5-dihydro-1H-pyrazolo [4,3-c]pyridin-1-yl}tetrahydro-2H-pyran-3-yl]acetonitrile]
[1]
  IC50: 0.13 nM
[2]
  IC50: 0.16 nM

## CCNC(c1ccc(Nc2nn([C@]3(CC#N)CC[C@@H](C(=O)OC(C)(C)C)OC3)c3cc[nH]c(=O)c23)cc1)C(F)(F)F (single isomer, unassigned) [Example 5-207, (2S,5S)-tert-butyl 5-(cyanomethyl)-5-(3-((4-((R or S)-1-(ethylamino)-2,2,2-trifluoroethyl)phenyl)amino)-4-oxo-4,5-dihydro-1H-pyrazolo[4,3-c]pyridin-1-yl)tetrahydro-2H-pyran-2-carboxylate]
[1]
  IC50: 0.19 nM
[2]
  IC50: 0.26 nM

## CCNC(c1ccc(Nc2nn([C@]3(CC#N)CC[C@@H](C(=O)OC(C)(C)C)OC3)c3cc[nH]c(=O)c23)cc1)C(F)(F)F (single isomer, unassigned) [Example 5-208, (2S,5S)-tert-butyl 5-(cyanomethyl)-5-(3-((4-((R or S)-1-(ethylamino)-2,2,2-trifluoroethyl)phenyl)amino)-4-oxo-4,5-dihydro-1H-pyrazolo[4,3-c]pyridin-1-yl)tetrahydro-2H-pyran-2-carboxylate]
[1]
  IC50: 0.24 nM
[2]
  IC50: 0.31 nM

## CC(C)NC(c1ccc(Nc2nn([C@]3(CC#N)CC[C@@H](C(=O)OC(C)(C)C)OC3)c3cc[nH]c(=O)c23)cc1)C(F)(F)F (single isomer, unassigned) [Example 5-209, (2S,5S)-tert-butyl 5-(cyanomethyl)-5-(4-oxo-3-((4-((R or S)-2,2,2-trifluoro-1-(isopropylamino)ethyl)phenyl)amino)-4,5-dihydro-1H-pyrazolo [4,3-c]pyridin-1-yl)tetrahydro-2H-pyran-2-carboxylate]
[1]
  IC50: 0.32 nM
[2]
  IC50: 0.35 nM
